The target of one data set is T1, Porcine UGPPase (Sus scrofa, UniProt Q865Y9).
T1 construct: Fresh porcine kidney, 3.6-kg of weight, was homogenized; from tissue; host or cells: porcine kidney
T1 sequence (Q865Y9 1-222): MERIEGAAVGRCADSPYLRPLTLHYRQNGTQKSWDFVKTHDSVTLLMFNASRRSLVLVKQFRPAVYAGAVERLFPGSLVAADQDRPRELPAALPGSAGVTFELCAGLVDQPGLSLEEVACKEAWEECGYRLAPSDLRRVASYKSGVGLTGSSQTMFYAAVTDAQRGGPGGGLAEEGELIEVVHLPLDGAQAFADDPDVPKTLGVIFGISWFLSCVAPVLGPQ
The experiment in a line: UGPPase activity measurement (G1P produced, coupled NADH read-out), substrate specificity and UDPG dependence, porcine enzyme. The data set is classed as biochemical, pig. As to conditions: 5 mM of corresponding substrate, UDPG = 100%. The procedure: (§1) UGPPase activity is defined based on the amount of G1P produced by the enzyme. The measurement is carried in two-step reactions according to the method reported by Rodriguez-Lopez et al. (11). In the first reaction, 50 μl of the reaction mixture consisting of a sample containing UGPPase, 0-20 mM concentration of a sugar nucleotide (UDP-, ADP- or GDP-glucose)(SIGMA), 20 mM MgCl2, and 50 mM Tris-HCl (pH 9.0), and the mixture is incubated at 37° C. for 30 minutes. As a blank, the same sample that has been boiled for two minutes to inactivate UGPPase is used. After the incubation period, the reaction is terminated by a two-minute boiling, and the mixture centrifuged at 20,000 g for 10 minutes at 4° C.
(§2) The reaction mixture is placed in a 96-well FluoroNunc™ plate (NUNC) and incubated at 37° C. for 10 minutes. This second reaction produces an equimolar amount of NADH to that of G1P produced in the first reaction. The amount of NADH is determined by measuring OD at 340 nm using a microplate reader (MOLECULAR DEVICE).
(§3) The activity was calculated as follows: 1U=[a]/30/0.03 where [a]is the amount in μmol of NADH produced in the reaction.
(§4) The above conditions of the first reaction were modified according to the purpose of each of the test, as specifically indicated below.

The next data set concerns the target T2, human UGPPase (Homo sapiens, UniProt O95848).
T2 construct: made in house; host or cells: E. coli AD494(DE3), plasmid pET11a-AAD15563.1
T2 sequence (O95848 1-222): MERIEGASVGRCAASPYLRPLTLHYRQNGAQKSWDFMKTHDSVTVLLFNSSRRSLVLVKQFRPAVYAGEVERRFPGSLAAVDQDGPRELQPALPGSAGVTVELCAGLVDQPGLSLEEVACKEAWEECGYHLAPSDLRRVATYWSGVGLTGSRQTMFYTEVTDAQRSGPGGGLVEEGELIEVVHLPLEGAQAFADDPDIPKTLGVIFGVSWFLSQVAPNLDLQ
Kind of data set: UGPPase activity measurement (G1P produced, coupled NADH read-out), substrate specificity and UDPG dependence, human recombinant enzyme. Type of data set: biochemical. As to conditions: 5 mM of corresponding substrate, UDPG = 100%. The procedure:
as §1, §2, §3, §4

The target of data set [1] is rabbit anti-hUGPPase antibody. The experiment in a line: hUGPPase ELISA. The data set is classed as binding. As to conditions: rabbit anti-hUGPPase antibody as solid phase, fusion protein as standard (FIG. 23). The method, then:
The rabbit anti-hUGPPase antibody prepared in (14) above was diluted with 50 mM NaHCO3, pH 9.6 to prepare a 25 μg/ml solution. The solution was added to the wells of a 96-well plate (NUNC), 100 μl each, and incubated at 37° C. for 1 hour for coating. The antibody solution was removed and 300 μl of a blocking buffer [1.0% (w/v) BSA, PBS, 10 mM glycine, pH 7.4] was added to each well and incubated at 37° C. for 1 hour for blocking.
For preparation of a standard, hUGPPase His-tag fusion protein was diluted stepwise to 10 μg/ml-0.1 ng/ml using a dilution buffer [20 mM Tris, 150 mM NaCl, 0.1% (w/v) BSA, pH7.4].
To use as samples, two types of E. coli AD494(DE3) cells, the one with introduced plasmid pET-19b AAD15563.1 and the other with plasmid pET-19b, respectively, were lysed and diluted to 50, 5, 0.5 and 0.05 μg/ml with the dilution buffer. Each well of the plate was removed of the blocking buffer and washed 3 times with 300 μl each of TTBS. To each well was added 100 μl of the standard or the sample solution and an incubation followed at 37° C. for 1 hour.
For detection of hUGPPase His-tag fusion protein, the HRP-conjugated rabbit anti-hUGPPase antibody prepared in (15) was used after dilution to 0.5 μg/ml with the dilution buffer. […] After a 5-min incubation at room temperature, 50 μl of 2M H2SO4 was added to each well to terminate the reaction, and OD at 450 nm was measured.

Data set [2] can be described thus: Specific activity and optimal pH of purified UGPPase products. The data set is classed as biochemical. As to conditions: UGPPase activity. The procedure:
as §1, §2, §3, §4

Turning to `Nc1ncnc2c1ncn2[C@@H]1O[C@H](COP(=O)(O)OP(=O)(O)OC[C@H]2OC(O)[C@H](O)[C@@H]2O)[C@@H](O)[C@H]1O` (stereo partly shown) [ADP-ribose], the “% activity with respect to UDPG” value is given as 95% on Porcine UGPPase and 110% on human UGPPase.
As to `Nc1ncnc2c1ncn2[C@@H]1O[C@H](COP(=O)(O)OP(=O)(O)O)[C@@H](O)[C@H]1O` [ADP], the “% activity with respect to UDPG” value on Porcine UGPPase and at human UGPPase was “bdl” in each case.
In the case of `Nc1ncnc2c1ncn2[C@@H]1O[C@H](COP(=O)(O)O)[C@@H](O)[C@H]1O` [AMP, adenosine 5′-monophosphate], the “% activity with respect to UDPG” value on Porcine UGPPase and on human UGPPase was “bdl” in each case.
Turning to `Nc1ncnc2c1ncn2[C@@H]1O[C@H](COP(=O)(O)OP(=O)(O)OP(=O)(O)O)[C@@H](O)[C@H]1O` [ATP], the “% activity with respect to UDPG” value on Porcine UGPPase and on human UGPPase was “bdl” each time.
Regarding `O=[N+]([O-])c1ccc(OP(=O)(O)Oc2ccc([N+](=O)[O-])cc2)cc1` [Bis-PNPP], the “% activity with respect to UDPG” value on Porcine UGPPase and on human UGPPase was “bdl” in each case.
Consider `Nc1ccn([C@@H]2O[C@H](COP(=O)(O)OP(=O)(O)O[C@H]3O[C@H](CO)[C@@H](O)[C@H](O)[C@H]3O)[C@@H](O)[C@H]2O)c(=O)n1` [CDPG], for which the “% activity with respect to UDPG” value on Porcine UGPPase is 2%; on human UGPPase, 3%.
For `Nc1nc2c(ncn2[C@@H]2O[C@H](COP(=O)(O)OP(=O)(O)O[C@H]3O[C@H](CO)[C@@H](O)[C@H](O)[C@H]3O)[C@@H](O)[C@H]2O)c(=O)[nH]1` [GDPG, GDP-glucose], the “% activity with respect to UDPG” value on Porcine UGPPase and on human UGPPase was about 10% each time.
With `NC(=O)c1ccc[n+]([C@@H]2O[C@H](COP(=O)([O-])OP(=O)(O)OC[C@H]3O[C@@H](n4cnc5c(N)ncnc54)[C@H](O)[C@@H]3O)[C@@H](O)[C@H]2O)c1` [NAD], the “% activity with respect to UDPG” value at Porcine UGPPase and on human UGPPase was “bdl” in each case.
In the case of `O=[N+]([O-])c1ccc(OP(=O)(O)O)cc1` [PNPP], the “% activity with respect to UDPG” value on Porcine UGPPase and on human UGPPase was “bdl” each time.
On to `O=C(O)[C@H]1O[C@H](OP(=O)(O)OP(=O)(O)OC[C@H]2O[C@@H](n3ccc(=O)[nH]c3=O)[C@H](O)[C@@H]2O)[C@H](O)[C@@H](O)[C@@H]1O` [UDP-glucuronic], for which the “% activity with respect to UDPG” value on Porcine UGPPase and on human UGPPase was “bdl” each time.
On to `O=c1ccn([C@@H]2O[C@H](COP(=O)(O)OP(=O)(O)OP(=O)(O)O)[C@@H](O)[C@H]2O)c(=O)[nH]1` [UTP], for which the “% activity with respect to UDPG” value on Porcine UGPPase and at human UGPPase was “bdl” in each case.

B1: hUGPPase His-tag fusion protein: His-tagged hUGPPase expressed from pET-19b AAD15563.1 in E. coli, purified; ELISA standard (protein)
chain: MGLLLPLPVPGLLLLEAETHPHFPCNHGQEGACTRHARVRAYPGPLVHRRKRPAWLWELAAPACPGAAMERIEGASVGRCAASPYLRPLTLHYRQNGAQKSWDFMKTHDSVTVLLFNSSRRSLVLVKQFRPAVYAGEVERRFPGSLAAVDQDGPRELQPALPGSAGVTVELCAGLVDQPGLSLEEVACKEAWEECGYHLAPSDLRRVATYWSGVGLTGSRQTMFYTEVTDAQRSGPGGGLVEEGELIEVVHLPLEGAQAFADDPDIPKTLGVIFGVSWFLSQVAPNLDLQ
modifications: left off: small tags and cut ends
notes: His-tagged hUGPPase expressed from pET-19b AAD15563.1 in E. coli, purified; ELISA standard
On to B1, for which the “EC50 (effecter concentration for half-maximum response) of the ELISA system” value in data set [1] came to 0.2468 µg/mL.

B2: human UGPPase: recombinant protein AAD15563.1 (SEQ ID NO:2) expressed in E. coli AD494(DE3), final MonoP-purified product (protein, listed as Homo sapiens)
chain: T2 sequence (O95848 1-222)
modifications: USPPase
In the case of B2, the “Specific activity of the final purified product” value in data set [2] was 6.7 U/mg; in data set [2] (listed as r-hUGPPase), 6.74 U/mg.

Values taken from patent US7338776B2, “Production of UGPPase” (JCR Pharmaceuticals Co., Ltd., priority 2002, dated 2008).
